Reference: US9550782B2, “Compounds and methods for treating diabetes” (Medivation Technologies, Inc., priority 2011, dated 2017)
Several values for one entry are separate records, joined by “and”; a condition that tells them apart may be missing. Equal entries are not always repeated.

Tests used:
[1] = target: T1, rat adrenergic α1B receptor (Rattus norvegicus, UniProt P15823); assay: Radioligand binding, adrenergic α1B ([3H]Prazosin); design: species or system Wistar Rat
T1 construct: rat adrenergic α1B receptor obtained from Wistar Rat liver; from tissue; host or cells: Wistar rat liver
T1 sequence (P15823 1-515): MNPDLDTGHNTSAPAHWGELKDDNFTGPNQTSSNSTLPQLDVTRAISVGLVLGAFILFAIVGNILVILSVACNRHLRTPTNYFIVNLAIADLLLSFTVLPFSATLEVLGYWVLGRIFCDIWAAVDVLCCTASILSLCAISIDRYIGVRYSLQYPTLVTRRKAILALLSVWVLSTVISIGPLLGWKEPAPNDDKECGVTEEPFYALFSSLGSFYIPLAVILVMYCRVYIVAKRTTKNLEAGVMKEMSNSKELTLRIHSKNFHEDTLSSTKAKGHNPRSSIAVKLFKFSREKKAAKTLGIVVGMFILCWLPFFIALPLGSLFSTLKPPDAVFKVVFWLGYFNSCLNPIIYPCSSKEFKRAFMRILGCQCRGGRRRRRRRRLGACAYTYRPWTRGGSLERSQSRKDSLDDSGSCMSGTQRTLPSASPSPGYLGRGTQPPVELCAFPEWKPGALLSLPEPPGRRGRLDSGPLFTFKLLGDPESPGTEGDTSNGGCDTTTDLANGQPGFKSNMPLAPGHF
How it was run: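 Filter binding with Wistar rat liver α1B preparation: test compound plus 0.25 nM [3H]prazosin, 1 h at 25° C in modified Tris-HCl buffer pH 7.4.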

[2] = target: T2, human recombinant adrenergic α2B receptor (Homo sapiens, UniProt P18089); assay: Radioligand binding, adrenergic α2B ([3H]Rauwolscine); settings: for Percentage inhibition of ligand binding, Adrenergic α2B (0.03 μM) / Percentage inhibition of ligand binding, Adrenergic α2B: 0.03 µM
T2 construct: expressed in transfected cells; host or cells: CHO-K1
T2 sequence (P18089 1-450): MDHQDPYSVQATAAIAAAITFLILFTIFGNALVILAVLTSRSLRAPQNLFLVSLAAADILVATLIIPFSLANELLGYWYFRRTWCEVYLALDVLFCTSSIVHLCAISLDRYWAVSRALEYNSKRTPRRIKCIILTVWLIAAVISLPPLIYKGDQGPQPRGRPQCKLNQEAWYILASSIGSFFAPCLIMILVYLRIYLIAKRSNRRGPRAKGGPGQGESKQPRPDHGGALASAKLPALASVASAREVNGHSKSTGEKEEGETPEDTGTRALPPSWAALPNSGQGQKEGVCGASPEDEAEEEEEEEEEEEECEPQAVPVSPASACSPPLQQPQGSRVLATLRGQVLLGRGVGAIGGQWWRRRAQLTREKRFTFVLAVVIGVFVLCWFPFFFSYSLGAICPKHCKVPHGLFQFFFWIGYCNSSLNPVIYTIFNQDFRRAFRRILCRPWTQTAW
How it was run: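 Membranes from CHO-K1 cells expressing human recombinant α2B, in 50 mM Tris-HCl pH 7.4, 12.5 mM MgCl2, 1 mM EDTA, 0.2% BSA, incubated with compound and 2.5 nM [3H]Rauwolscine, 60 min, 25 °C.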

[3] = target: T3, human recombinant adrenergic α2A receptor (Homo sapiens, UniProt P08913); assay: Radioligand binding, adrenergic α2A ([3H]MK-912); settings: [3H]MK-912; for Percentage inhibition of ligand binding, Adrenergic α2A (0.1 μM) / Percentage inhibition of ligand binding, Adrenergic α2A: 0.1 µM
T3 construct: expressed in transfected cells; host or cells: insect Sf9 cells
T3 sequence (P08913 1-465): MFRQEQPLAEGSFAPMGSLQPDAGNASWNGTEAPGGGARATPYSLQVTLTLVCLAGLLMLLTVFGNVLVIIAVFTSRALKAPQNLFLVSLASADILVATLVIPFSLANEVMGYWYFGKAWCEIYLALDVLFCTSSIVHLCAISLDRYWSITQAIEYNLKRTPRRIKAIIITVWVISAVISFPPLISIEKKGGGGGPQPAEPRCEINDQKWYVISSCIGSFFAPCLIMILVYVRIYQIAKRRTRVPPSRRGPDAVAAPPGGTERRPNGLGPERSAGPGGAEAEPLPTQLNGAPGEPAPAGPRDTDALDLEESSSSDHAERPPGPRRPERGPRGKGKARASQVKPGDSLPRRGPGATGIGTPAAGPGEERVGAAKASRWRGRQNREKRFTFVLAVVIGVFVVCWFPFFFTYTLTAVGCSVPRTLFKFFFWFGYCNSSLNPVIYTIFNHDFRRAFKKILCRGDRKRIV
How it was run: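 Sf9-expressed receptor was incubated with compound for 60 min at 25 °C in modified Tris-HCl buffer, pH 7.4. Nonspecific binding was taken as that remaining with 10 μM WB-4101.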

[4] = compound at 0.1 μM, repeat datapoints each shown, 0.1 µM
[5] = compound at 0.03 μM, repeat datapoints each shown
[6] = compound at 0.1 μM, repeat datapoints each shown

Percentage inhibition of ligand binding, Adrenergic α1B (0.1 μM) [1, 4]	Percentage inhibition of ligand binding, Adrenergic α2B (0.03 μM) [2, 5]	Percentage inhibition of ligand binding, Adrenergic α2A (0.1 μM) [3, 6]	Compound	other results
70%	119%	41%	Cc1ccc2c(c1)c1c(n2CC(O)c2ccncc2)CCN2CCCCC12 (single isomer, unassigned) [47b]	
58%	46%	7%	CN1CCc2c(c3cc(Cl)ccc3n2CC(O)c2ccncc2)C1 (single isomer, unassigned) [4b]	
50%	50%	8%	CN1CCc2c(n(CC(O)c3ccncc3)c3ccc(Cl)cc23)C1 (single isomer, unassigned) [41b]	
1%	1% and 7%	19%	Cc1cnc2c(c1)c1c(n2CC(C)(O)c2cccnc2)CCN2CCCC12 (single isomer, unassigned) [26c]	
24%	96%	16%	CN1CCc2c(c3cccc(Cl)c3n2CC(O)c2ccncc2)C1 (single isomer, unassigned) [45b]	
52% and 57%	99% and 103%	19% and 24%	CN1CCc2c(c3cc(Cl)ccc3n2CC(O)c2ccncc2)C1 (single isomer, unassigned) [4a]	Percentage inhibition of ligand binding, Adrenergic α1B (0.03 μM) [1, 5]: 25%; Percentage inhibition of ligand binding, Adrenergic α2B (0.1 μM) [2, 4]: 104%; Percentage inhibition of ligand binding, Adrenergic α2A (0.03 μM) [3, 5]: 5%
16%	43%	5%	Cc1ccc2c(c1)c1c(n2CC(O)c2ccncc2)CC2CCCCN2C1 (racemic) [75b]	
61%	77%	11%	Cc1ccc2c(c1)c1c(n2CC(O)c2ccncc2)CC2CCCCN2C1 (racemic) [75a]	
			Cc1cnc2c(c1)c1c(n2CC(C)(O)c2ccc(F)cc2)CCN(C)C1 (single isomer, unassigned) [138a]	Percentage inhibition of ligand binding, Adrenergic α1B ([1]; 0.1 μM compound, 0.1 µM): 61%; Percentage inhibition of ligand binding, Adrenergic α2B ([2]; 0.03 μM compound): 63%; Percentage inhibition of ligand binding, Adrenergic α2A ([3]; 0.1 μM compound): −8%
−2%	6% and 11%	0%	Cc1cnc2c(c1)c1c(n2CC(C)(O)c2cccnc2)CCN2CCCC12 (single isomer, unassigned) [26d]	
7%	31%	12%	CN1CCc2c(c3cc(C(F)(F)F)ccc3n2CC(O)c2cccnc2)C1 (single isomer, unassigned) [59b]	
37%	74%	25%	CN1CCc2c(c3cc(Cl)ccc3n2CC(O)c2cccnc2)C1 (single isomer, unassigned) [7b]	
58%	40%	10%	Cc1ccc2c(c1)c1c(n2CC(O)c2ccncc2)CCN2CCCCC12 (single isomer, unassigned) [47a]	
33%	35%	5%	Cc1ccc2c(c1)c1c(n2CC(O)c2ccncc2)CC2CCCN2C1 (single isomer, unassigned) [76c]	
5%	30%	−3%	Cc1ccc2c(c1)c1c(n2CC(O)c2ccncc2)CCN2CCCCC12 (single isomer, unassigned) [47d]	
16%	58%	12%	CN1CCc2c(c3cccc(Br)c3n2CC(O)c2ccncc2)C1 (single isomer, unassigned) [48a]	
6%	53%	4%	Cc1ccc2c(c1)c1c(n2CC(O)c2ccncc2)CCN2CCCCC12 (single isomer, unassigned) [47c]	
41%	96%	28%	CN1CCc2c(n(CC(C)(O)c3cccnc3)c3ccc(Cl)cc23)C1 (single isomer, unassigned) [28a]	
			Cc1cnc2c(c1)c1c(n2CC(O)c2ccc(C)nc2)CCN(C)C1 (single isomer, unassigned) [II-100b]	Percentage inhibition of ligand binding, Adrenergic α1B ([1]; compound at 0.1 μM): 24%; Percentage inhibition of ligand binding, Adrenergic α2B ([2]; compound at 0.03 μM): 1%; Percentage inhibition of ligand binding, Adrenergic α2A ([3]; compound at 0.1 μM): 4%
			Cc1ccc2c(c1)c1c(n2CC(O)c2ccc(C#N)cc2)CCNC1 (stereo not drawn) [II-116]	inhibition at 0.1 µM ([1]; read-out: Percentage inhibition of ligand binding, Adrenergic α1B (0.1 μM), compound at 0.1 μM, repeat datapoints each shown): 4%; inhibition at 0.03 µM ([2]; read-out: Percentage inhibition of ligand binding, Adrenergic α2B (0.03 μM), compound at 0.03 μM, repeat datapoints each shown): 43%; inhibition at 0.1 µM ([3]; read-out: Percentage inhibition of ligand binding, Adrenergic α2A (0.1 μM), compound at 0.1 μM, repeat datapoints each shown): 3%
			Cc1ccc2c(c1)c1c(n2CC(C)(O)c2cccnc2)CNCC1 (stereo not drawn) [128b]	Percentage inhibition of ligand binding, Adrenergic α1B ([1]; 0.1 μM compound, 0.1 µM): 45%; Percentage inhibition of ligand binding, Adrenergic α2B ([2]; 0.03 μM compound): 54%; Percentage inhibition of ligand binding, Adrenergic α2A ([3]; 0.1 μM compound): 22%
